Experimental data taken from US8933016B2, “Metallodrugs having improved pharmacological properties and methods of manufacture and use thereof” (priority 2012, dated 2015).
Values after ≈ are worked out from the molar mass of the structure shown. Like-named read-outs stand apart in the source and are kept apart here. Ends that are not written are not given here. Peptide text beside a SMILES is read from it. * marks the point of attachment. X2 = COCCOCCOCCOCCOCCOCCOCCOCCOCCOCCOCCOCCOCCOCCOCCOCCOCCOCCOCCOCCOCCOCCOCCOCCNC(=O)CCN1C(=O)CC(*)C1=O; X1 = COCCOCCOCCOCCOCCOCCOCCOCCOCCOCCOCCOCCNC(=O)CCN1C(=O)CC(*)C1=O

Assays:
E. coli (ATCC 25922) = test: Protein oxidation, quantitation of protein carbonyls in E. coli; format: cell-based; settings: 100 mM
[1] = Cytotoxicity toward human Huh7 liver cells
[2] = test system: S. pneumoniae, 49619 (Sp)
[3] = test system: E. coli O157:H7, BAA-1883 (Ec F)
[4] = test system: H. influenzae, 49247 (Hi)
[5] = test system: K. pneumonia, 700603 (Kp); format: cell-based; settings: Mueller Hinton Broth
[6] = test system: A. baumanii, BAA-747 (Ab)
MRSA, 43300 = settings: Mueller Hinton Broth
E. faecium, 700221 (Ef) = settings: Mueller Hinton Broth
in vitro = settings: human

OO [H2O2, Hydrogen Peroxide]
Protein Carbonyls (nmol/mg protein) (E. coli (ATCC 25922); 2 hours (PEP 188 table)): 0.87 nmol/mg protein
Protein Carbonyls (nmol/mg protein) (E. coli (ATCC 25922); 2 hours, average of 2 separate experiments (PEP 189 table)): 0.44 nmol/mg protein

CC[C@H](C)[C@H](NC(=O)[C@H](CCCCN)NC(=O)[C@H](Cc1c[nH]c2ccccc12)NC(=O)[C@H](CCCNC(=N)N)NC(=O)[C@H](CCCNC(=N)N)NC(=O)[C@H](Cc1c[nH]cn1)NC(=O)CNC(=O)CN)C(=O)N[C@H](C(=O)N[C@H](C(=O)N[C@H](C(=O)N[C@@H](CCCNC(=N)N)C(=O)N[C@@H](Cc1c[nH]c2ccccc12)C(=O)N[C@@H](CCCNC(=N)N)C(=O)N[C@@H](CCCNC(=N)N)C(=O)NCC(=O)NCC(=O)N[C@@H](CSC1CC(=O)N(CCC(=O)NCCOCCOCCOCCOCCOCCOCCOCCOCCOCCOCCOCCOCCOCCOCCOCCOCCOCCOCCOCCOCCOCCOCCOCCOC)C1=O)C(=O)O)[C@@H](C)CC)C(C)C)C(C)C (stereo partly shown) [PEP 314 PEG 24] (H-GGHRRWKIVVIRWRRGGC(X2)-OH; C-terminus assumed)
IC50 [1]: > 200 µM
MIC Sp ([2]; 49619 (Sp)): 4.7 µM (≈ 16.1 µg/mL)
MIC Ec F ([3]; O157:H7): 9.3 µM (≈ 31.9 µg/mL)

CC[C@H](C)[C@H](NC(=O)[C@H](Cc1c[nH]cn1)NC(=O)CNC(=O)CN)C(=O)N[C@@H](CC(C)C)C(=O)N1CCC[C@H]1C(=O)N[C@@H](Cc1c[nH]c2ccccc12)C(=O)N[C@@H](CCCCN)C(=O)N[C@@H](Cc1c[nH]c2ccccc12)C(=O)N1CCC[C@H]1C(=O)N[C@@H](Cc1c[nH]c2ccccc12)C(=O)N[C@@H](Cc1c[nH]c2ccccc12)C(=O)N1CCC[C@H]1C(=O)N[C@@H](Cc1c[nH]c2ccccc12)C(=O)N[C@@H](CCCNC(=N)N)C(=O)N[C@@H](CCCNC(=N)N)C(=O)NCC(=O)NCC(=O)N[C@@H](CS)C(=O)O [PEP 316, GGHILPWKWPWWPWRRGGC]
MIC Hi [4]: 13.5 µM (≈ 32.1 µg/mL)

CC[C@H](C)[C@H](NC(=O)[C@H](Cc1c[nH]cn1)NC(=O)CNC(=O)CN)C(=O)N[C@@H](CCCNC(=N)N)C(=O)N[C@@H](CCCNC(=N)N)C(=O)N[C@H](C(=O)N[C@H](C(=O)N[C@@H](CCCNC(=N)N)C(=O)N[C@@H](CCCCN)C(=O)N[C@H](C(=O)N[C@H](C(=O)N[C@@H](Cc1c[nH]cn1)C(=O)N[C@H](C(=O)N[C@H](C(=O)N[C@@H](CCCCN)C(=O)N[C@@H](CCCCN)C(=O)NCC(=O)NCC(=O)N[C@@H](CSC1CC(=O)N(CCC(=O)NCCOCCOCCOCCOCCOCCOCCOCCOCCOCCOCCOCCOC)C1=O)C(=O)O)[C@@H](C)CC)[C@@H](C)CC)[C@@H](C)CC)[C@@H](C)CC)[C@@H](C)CC)[C@@H](C)CC (stereo partly shown) [PEP 318 PEG 12] (H-GGHIRRIIRKIIHIIKKGGC(X1)-OH; C-terminus assumed)
MIC Hi [4]: 2.7 µM (≈ 8.05 µg/mL)
MIC Ec (E. coli, 25922 (Ec); 25922 (Ec)): 10.7 µM (≈ 31.9 µg/mL)
IC50 [1]: 150 µM
MIC Kp [5]: 21.4 µM (≈ 63.8 µg/mL)
MIC Ab ([6]; BAA-747): 5.4 µM (≈ 16.1 µg/mL)
MIC Sp ([2]; 49619 (Sp)): 5.4 µM (≈ 16.1 µg/mL)
MIC Bc (B. cepacia, 25416 (Bc)): 2.7 µM (≈ 8.05 µg/mL)
MIC Ec F ([3]; O157:H7): 5.4 µM (≈ 16.1 µg/mL)

DOTA-Ampicillin [DOTAMP]
MIC Ec (E. coli, 25922 (Ec); Mueller Hinton Broth): 42.5 µM
MIC MRSA (MRSA, 43300): 42.5 µM
MIC Ec F ([3]; Mueller Hinton Broth): 42.5 µM

GGHGEYVLRNWRIVKVATTKAC [PEP 193]
MIC MRSA (MRSA, 43300): 13 µM

GGHGIRRIIRKIIHIIKKGGC [PEP 311]
MIC Sa (S. aureus, 29213 (Sa); Mueller Hinton Broth): 7.9 µM
MIC Hi [4]: 31.7 µM
MIC Ec (E. coli, 25922 (Ec); Mueller Hinton Broth): 7.9 µM
MIC Pa (P. aeuginosa, 27583 (Pa); Mueller Hinton Broth): 15.8 µM
MIC Kp [5]: 7.9 µM
MIC Ab ([6]; Mueller Hinton Broth): 2 µM
MIC Sp ([2]; Mueller Hinton Broth): 15.8 µM
MIC Ec F ([3]; Mueller Hinton Broth): 4 µM
MIC Ef (E. faecium, 700221 (Ef)): 4 µM

GGHGRRWKIVVIRWRRGGC [PEP 321, GGHGRRWKIVVIRWRRGGC]
MIC Hi [4]: 14.2 µM
MIC Kp [5]: 14.2 µM
MIC MRSA (MRSA, 43300): 14.2 µM
MIC Ab ([6]; Mueller Hinton Broth): 28.4 µM
MIC Sp ([2]; Mueller Hinton Broth): 1.8 µM
MIC Ec F ([3]; Mueller Hinton Broth): 14.2 µM
MIC Ef (E. faecium, 700221 (Ef)): 7.1 µM

GGHGWRWYCR [PEP 204, GGHGWRWYCR]
MIC Ec (E. coli, 25922 (Ec); Mueller Hinton Broth): 3.1 µM
MIC Pa (P. aeuginosa, 27583 (Pa); Mueller Hinton Broth): 25 µM
MIC Kp [5]: 4.7 µM
MIC MRSA (MRSA, 43300): 6.3 µM
MIC Ab ([6]; Mueller Hinton Broth): 25.1 µM
MIC Ec F ([3]; Mueller Hinton Broth): 50 µM
MIC Ef (E. faecium, 700221 (Ef)): 25.1 µM

GGHGWRWYCRGGK [PEP 323, GGHGWRWYCRGGK]
MIC Hi [4]: 1.5 µM
MIC Ec (E. coli, 25922 (Ec); 25922 (Ec)): 20.9 µM
MIC Pa (P. aeuginosa, 27583 (Pa)): 20.9 µM
MIC Kp [5]: 20.9 µM
MIC Ab ([6]; BAA-747): 20.9 µM

GGHIRRIIRKIIHIIKKGGC [PEP 318]
MIC Sa (S. aureus, 29213 (Sa); 29213 (Sa)): 14.1 µM
MIC Ec (E. coli, 25922 (Ec); 25922 (Ec)): 7 µM
MIC Pa (P. aeuginosa, 27583 (Pa)): 28.2 µM
MIC Kp [5]: 28.2 µM
IC50 (in vitro): 41 µM
MIC Ab ([6]; BAA-747): 7 µM
MIC Sp ([2]; 49619 (Sp)): 3.5 µM

GGHRRWKIVVIRWRRGGC [PEP 314, GGHRRWKIVVIRWRRGGC]
MIC Sa (S. aureus, 29213 (Sa); 29213 (Sa)): 29.2 µM
MIC Hi [4]: 3.7 µM
MIC Ec (E. coli, 25922 (Ec); 25922 (Ec)): 14.6 µM
MIC Pa (P. aeuginosa, 27583 (Pa)): 14.6 µM
MIC Kp [5]: 14.6 µM
IC50 (in vitro): 17 µM
MIC Ab ([6]; BAA-747): 7.3 µM
MIC Sp ([2]; 49619 (Sp)): 0.9 µM

GGHTRQARRNRR [PEP 205, GGHTRQARRNRR]
MIC Pa (P. aeuginosa, 27583 (Pa)): 43.7 µM

GGHWRWYCRGGK [PEP 322, GGHWRWYCRGGK]
MIC Hi [4]: 2.7 µM
MIC Kp [5]: 7.6 µM
